The source of these data is patent US8993575B2, “[1,3,4] oxadiazole derivative and application thereof” (Huazhong University of Science & Technology, priority 2011, dated 2015).

One series has as its target 5HT2A receptor (Rattus norvegicus (Rat), UniProt P14842). Description: 5HT2A receptor assay ([3H]-Ketanserin, rat brain mantle membrane). The series is classed as binding. To be noted: for IC50: values marked a = IC50; for inhibition at 10 µM: read-out: 5HT2A Inhibition %.
In the next series the target is 5HT2C (Rattus norvegicus (Rat), UniProt P08909). The experiment in a line: 5HT2C receptor binding assay ([3H]-mesulergine, rat brain mantle membrane). As to conditions: test compound final concentration 10^-5 M. Here is the method: Incubation at 37° C. was conducted for 10 min, the weight of the tubes were adjusted using a balance after the incubation. […] Centrifugation was conducted (repeated 3 times).
Chain of 5HT2C (P08909 33-460 limits assumed): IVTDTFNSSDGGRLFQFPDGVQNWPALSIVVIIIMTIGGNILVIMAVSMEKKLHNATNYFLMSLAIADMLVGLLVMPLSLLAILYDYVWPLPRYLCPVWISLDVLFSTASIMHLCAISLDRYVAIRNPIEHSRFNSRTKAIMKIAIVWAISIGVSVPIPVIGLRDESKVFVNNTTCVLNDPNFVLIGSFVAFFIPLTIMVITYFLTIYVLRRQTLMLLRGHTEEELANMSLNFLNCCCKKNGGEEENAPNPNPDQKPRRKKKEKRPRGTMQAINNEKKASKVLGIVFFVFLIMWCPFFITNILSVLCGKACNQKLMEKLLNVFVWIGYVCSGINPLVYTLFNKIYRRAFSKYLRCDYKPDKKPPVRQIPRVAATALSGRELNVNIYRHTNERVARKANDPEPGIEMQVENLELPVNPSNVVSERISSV

For another series, the target named is 5HT1A receptor (Rattus norvegicus (Rat), UniProt P19327). The experiment in a line: 5HT1A receptor binding assay (3H-8-OH-DPAT, rat brain mantle membrane). As to conditions: for IC50: values marked a = IC50; for inhibition at 10 µM: test compound final concentration 10^-5 M. Here is the method: Incubation at 37° C. was conducted for 10 min, the weight of the tubes were adjusted using a balance after incubation. […] Centrifugation was conducted and repeated 3 times.
Chain of 5HT1A receptor (P19327 whole entry): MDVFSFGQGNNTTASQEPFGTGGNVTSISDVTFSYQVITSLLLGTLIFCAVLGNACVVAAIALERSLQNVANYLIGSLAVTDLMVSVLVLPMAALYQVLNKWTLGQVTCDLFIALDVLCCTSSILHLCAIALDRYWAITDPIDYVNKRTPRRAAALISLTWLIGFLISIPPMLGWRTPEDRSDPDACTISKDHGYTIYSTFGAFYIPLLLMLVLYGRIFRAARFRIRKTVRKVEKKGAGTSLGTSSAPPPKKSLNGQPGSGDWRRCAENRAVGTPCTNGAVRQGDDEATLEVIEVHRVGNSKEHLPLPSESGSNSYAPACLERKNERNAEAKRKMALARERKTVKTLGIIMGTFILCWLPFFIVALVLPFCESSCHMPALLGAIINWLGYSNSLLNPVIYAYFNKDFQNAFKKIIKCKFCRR

In another series the target is D2 receptor (Rattus norvegicus (Rat), UniProt P61169). The experiment in a line: D2 receptor binding assay (3H-Spiperone, rat brain striatum membrane). To be noted: read-out: D2 Inhibition %.
Chain of D2 receptor (P61169 whole entry): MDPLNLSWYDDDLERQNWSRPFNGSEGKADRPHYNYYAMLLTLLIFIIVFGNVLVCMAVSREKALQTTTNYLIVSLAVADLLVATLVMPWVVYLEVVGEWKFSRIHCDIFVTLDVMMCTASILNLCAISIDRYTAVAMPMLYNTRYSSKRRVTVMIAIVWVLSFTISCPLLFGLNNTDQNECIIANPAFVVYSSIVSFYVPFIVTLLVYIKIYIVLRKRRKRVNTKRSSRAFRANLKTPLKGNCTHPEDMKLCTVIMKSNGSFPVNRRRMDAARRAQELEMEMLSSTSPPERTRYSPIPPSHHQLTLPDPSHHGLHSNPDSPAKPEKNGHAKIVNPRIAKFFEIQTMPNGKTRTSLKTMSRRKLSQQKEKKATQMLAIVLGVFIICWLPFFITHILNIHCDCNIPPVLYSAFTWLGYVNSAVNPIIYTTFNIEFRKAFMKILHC
A further series has as its target D3 receptor (Homo sapiens (Human), UniProt P35462). The experiment in a line: D3 receptor binding assay ([3H]-Spiperone, HEK-293 cells). To be noted: test compound final concentration 10 μmol/L. Here is the method:
After the cells were centrifuged at 1000 rpm for 5 min, the supernatant was discarded, and the cell pellet was collected and stored in a −20° C. fridge for reservation. It was re-suspended with Tris-Cl (pH 7.4) in the assay.
Tris was divided into aliquots by Genetimes Technology Inc.
Competitive binding test for receptors: 20 μl of each of the test compounds and 20 μl of the radioactive ligand together with 160 μl of the receptor proteins were added into the reaction tubes, and the final concentrations of the test compound and the positive drug were all 10 μmol/L. After 50 min of incubation in 30° C. water bath, the tubes were immediately moved to ice bath to terminate the reactions. GF/C glass fiber filter papers were used for rapid sucking filtration on a Millipore cell sample collector, elution buffer (50 mM Tris-HCl, PH 7.4) was applied for 3 ml×3 times, and microwave was applied for 4-5 min for drying. The filter papers were moved into 0.5 ml centrifuge tubes, and 500 μl of lipid-soluble scintillation solution was added. The tubes were allowed to stand still for over 30 min in dark, and the intensities of radioactivity were measured by a counter.

Series [1] has as its system four receptors (D2, D3, 5-HT1A and 5-HT2A). Description: In vitro receptor binding assays, summary over four receptors. As to conditions: in vitro assay.
The nature of another series: in vivo. As to conditions: both sexes, mouse, in vivo, po. Here is the method:
KM mice (half male and half female) were randomly divided into several groups (with 2-5 mice in each group), which were respectively the 2000 mg/kg groups for each compound, and the solvent group. 0.2 ml/10 g were administered intragastrically. The death of the animals in 3 days were observed. (In the case 3 or more animals survived in 3 days without notable abnormity in their life states, the observation was continued until the assay was completed in 7 days. In the case 3 or more animals died in 3 days, the median lethal dose method was used to determine the LD50).
KM mice (half male and half female) were randomly divided into several groups (with 4 mice in each group), which were respectively the 1500 mg/kg, 1000 mg/kg, 500 mg/kg groups for each compound, and the solvent group. 0.2 ml/10 g were administered intragastrically, and the death of the animals in 1-3 days were observed.

The subject of series [2] is MK-801 high activity mice. The experiment in a line: MK-801 induced high activity in mice. The series is classed as in vivo. To be noted: for Total moving distance: MK-801 high activity mice, within 90 min; for ED50: Mus musculus, po, mice, read-out: MK-801 induced high activity ED50; for improvement of MK-801 induced high activity (in words): compared to the model group. Here is the method: Ascorbic acid was provided by Sinopharm Chemical Reagent Co. Ltd.
MK-801 was produced by Sigma Company, USA; the formulation method: 0.1% vitamin C was used to formulate a 1 mg/ml solution.
Tween 80, with the concentration of 10%.
Mice with qualified body weight were selected, and randomly divided into blank group, model group, positive control group (risperidone group) and drug group. […] 1 H after the administration, 0.1% of ascorbic acid was intraperitoneally injected to the blank group at 0.1 ml/10 g; and the model group, the positive control group (30 min) and the drug group were intraperitoneally injected the MK-801 solution at 0.1 mg/kg. Subsequently, the spontaneous activities of the mice of each group in 90 min were measured.

For series [3], the system named is apomorphine induced clambering of mice. Description: Apomorphine induced clambering assay of mice. As to conditions: for ED50: Mus musculus, po, read-out: apomorphine induced clambering ED50; for improvement of apomorphine induced clambering symptoms (in words): compared to the model group.
Description: Apomorphine provided by Sigma Company was dissolved in 0.9% NaCl (containing 0.1% vitamin C) before use, and was freshly formulated before use.
Instruments: self-made clambering cage, chronograph.
After 5 min of adaptation, the behaviors of the mice at 10-11, 20-21, 30-31 min after the injection of apomorphine were observed.
The subject of another series is KM mice (catalepsy). Description: Catalepsy assay in mice. The series is classed as in vivo. As to conditions: for catalepsy/MK-801 / catalepsy/apomorphine: ratio of ED50 values. The method, then:
(§1) The durations for the mice to maintain the posture with the two forepaws on the bars were recorded, and 30 s of spasticity without moving was considered as the positive response. In the case the forepaws of the mice were not put down persistently, the observation was terminated at 60 s. The numbers of animals with positive response in each of the compound dosage groups were counted.

The next series in a line: Catalepsy assay in mice. The series is classed as in vivo. To be noted: both sexes, Kunming (KM), mouse, in vivo; po, mice. The method, then: as §1
Setting [4] is: single intragastric administration in mice, read-out: LD50.

Read-outs that look alike come from different tables or passages of the source. Bounds are passed on as bounds.

Chain of D3 receptor (P35462 whole entry): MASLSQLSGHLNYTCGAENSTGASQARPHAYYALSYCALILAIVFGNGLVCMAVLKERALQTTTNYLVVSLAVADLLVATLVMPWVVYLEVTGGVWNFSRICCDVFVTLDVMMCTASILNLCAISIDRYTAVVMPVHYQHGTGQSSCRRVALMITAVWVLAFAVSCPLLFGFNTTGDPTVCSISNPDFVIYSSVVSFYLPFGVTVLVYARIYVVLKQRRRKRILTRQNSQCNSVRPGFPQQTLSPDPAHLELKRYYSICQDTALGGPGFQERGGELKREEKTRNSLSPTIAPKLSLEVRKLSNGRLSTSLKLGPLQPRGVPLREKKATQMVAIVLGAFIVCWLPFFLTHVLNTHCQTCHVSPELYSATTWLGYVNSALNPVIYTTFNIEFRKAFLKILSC
Chain of 5HT2A receptor (P14842 whole entry): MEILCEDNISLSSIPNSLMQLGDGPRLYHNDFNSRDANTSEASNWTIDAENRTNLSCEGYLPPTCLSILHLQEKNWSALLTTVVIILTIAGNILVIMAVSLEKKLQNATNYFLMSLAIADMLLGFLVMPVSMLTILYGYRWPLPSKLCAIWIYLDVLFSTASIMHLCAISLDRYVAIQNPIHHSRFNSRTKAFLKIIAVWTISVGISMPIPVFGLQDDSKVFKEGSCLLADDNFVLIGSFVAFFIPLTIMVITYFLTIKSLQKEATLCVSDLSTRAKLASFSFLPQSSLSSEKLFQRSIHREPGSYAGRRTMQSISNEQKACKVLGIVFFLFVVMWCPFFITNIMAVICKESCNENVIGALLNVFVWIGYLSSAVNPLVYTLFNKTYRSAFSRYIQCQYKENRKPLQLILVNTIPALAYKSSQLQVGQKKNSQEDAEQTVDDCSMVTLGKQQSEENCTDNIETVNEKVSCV
Description for D2 receptor: Brain striatum was rapidly taken, and 2 brain striatums were combined into a centrifuge tube, to which 3 ml of buffer (0.05 M Tris-HCl buffer, containing NaCl 120 mM, KCl 5 mM, MgCl2 1 mM, CaCl2 1 mM) was added, homogenization was conducted for 3-4 s at level 4 for four times, and then 5 ml of buffer was then added. The weight of the homogenized tubes were adjusted using a balance, and centrifugation was conducted at 12000 r, 4° C. for 20 min. The supernatant was discarded, and 3 ml of buffer was added (0.05 M Tris-HCl buffer, containing NaCl 120 mM, KCl 5 mM, MgCl2 1 mM, CaCl2 1 mM). Vortex mixer was used for blending, and then 5 ml of buffer was added (0.05 M Tris-HCl buffer, containing NaCl 120 mM, KCl 5 mM, MgCl2 1 mM, CaCl2 1 mM). Centrifugation was conducted and repeated 3 times. After the centrifugations, the supernatant was discarded, and the pellets were stored at −80° C. for future use.
Beckman LS-6500 Multi-function Liquid Scintillation Counter was used.
(1) The prepared membrane was first applied with appropriate amount of buffer (0.05 M Tris-HCl buffer, containing NaCl 120 mM, KCl 5 mM, MgCl2 1 mM, CaCl2 1 mM), and homogenizer was used for evenly dispersing. 15 tubes were mixed into a 100 ml container, and appropriate amount of homogenized liquid was added to give 50 ml of membrane suspension, which was reserved for future use.
(2) 100 μL of membrane preparation and 100 μL of buffer (0.05 M Tris-HCl buffer, containing NaCl 120 mM, KCl 5 mM, MgCl2 1 mM, CaCl2 1 mM) were added into each reaction tube.
(3) 100 μL of homogenized liquid was added into the total binding tube (TB), 100 μL of Butaclamol (final concentration 10^−5 M) was added into the non-specific binding tube (NB), and 100 μL of the test compound (final concentration 10^−5 M) was added into the specific binding tube (SB) for each compound.
(5) Each of the reaction tubes was incubated at 37° C. for 20 min. After the reaction was completed, the bound ligands were rapidly filtered under reduced pressure, and the ice-chilled assay buffer was used for adequate washing. The filter was taken out and put into a 3 ml scintillation vial, and 2 ml of toluene scintillation solution was added and blended.
(6) The scintillation vials were put into Liquid Scintillation Counter for counting. Inhibitory rate(1%)=[(Total binding tube cpm−compound cpm)/(Total binding tube cpm−non-specific binding tube cpm)]×100%
Each assay for the compounds was conducted in duplicate.

The IC50 is the concentration at which inhibition is half-maximal. A higher IC50 goes with weaker potency in that assay. Broadly, the inhibition is the drop in the measured response relative to a control, in per cent. Take `Clc1ccc(-c2nnc(SCCCN3CCN(c4nsc5ccccc45)CC3)o2)cc1` [Compound 5]: the IC50 was 62.5 nM on 5HT2A receptor and 26.9 nM on 5HT1A receptor. Also, the figures for the inhibition at 10 µM on 5HT2C, on D2 receptor and on D3 receptor were 56.5%, 92.7% and 98.7%, respectively.

For `Fc1ccc2c(C3CCN(CCCSc4nnc(-c5ccccc5)o4)CC3)noc2c1` [Compound 2], the inhibition at 10 µM at 5HT2A receptor is 11%; at 5HT1A receptor, 6.1%; at D2 receptor it was 77.5%.

Regarding `c1ccc2c(-c3nnc(SCCCN4CCN(c5nsc6ccccc56)CC4)o3)cccc2c1` [Compound 11], the “affinities to D2, D3, 5-HT1A and 5-HT2A receptors (in words)” value in series [1] was “relatively stronger affinities”. Further, in series [1], the “affinity compared to aripiprazole (in words)” value is on record as “equivalent to aripiprazole”. The inhibition at 10 µM is 91% on 5HT2A receptor, 45.8% at 5HT1A receptor and 25.7% on D2 receptor.

On to `COc1ccc(-c2nnc(SCCCN3CCN(c4nsc5ccccc45)CC3)o2)cc1` [Compound 3], for which the IC50 on 5HT2A receptor amounted to 2.27 nM; on 5HT1A receptor, 8.82 nM. Further, the inhibition at 10 µM turned out to be 98.5% at 5HT2C, 108% on D2 receptor and 99.5% on D3 receptor.

`c1csc(-c2nnc(SCCCN3CCN(c4nsc5ccccc45)CC3)o2)c1` [Compound 13]: the inhibition at 10 µM came out at 101% at 5HT2A receptor, 95.9% at 5HT1A receptor and 47.8% at D2 receptor.

In the case of `Fc1ccc2c(C3CCN(CCCSc4nnc(-c5ccncc5)o4)CC3)noc2c1` [Compound 16], the inhibition at 10 µM at 5HT2A receptor is 107%; at 5HT1A receptor, 86.7%; on D2 receptor, 45.9%.

As usually defined, the LD50 is the dose expected to kill half of the subjects tested. As usually defined, the ED50 is the midpoint of the dose-response relation. Turning to `Fc1ccc2c(C3CCN(CCCSc4nnc(-c5ccc(Cl)cc5)o4)CC3)noc2c1` [Compound 6], the LD50 in “in vivo” (setting [4]) was greater than 2000 mg/kg. In addition, the Total moving distance in [2] (3 mg/kg intragastric) stood at 20912.66 ± 9887.01 cm; in series [2] (5 mg/kg intragastric), 15745.74 ± 5475.41 cm; in series [2] (10 mg/kg intragastric), 12997.51 ± 7859.06 cm; in series [2] (20 mg/kg intragastric) it was 6741.35 ± 2251.52 cm; in [2] (30 mg/kg intragastric), 8454.72 ± 7864.50 cm. Also, the ED50 was determined as 3.31 mg/kg in series [2], 4.1 mg/kg in series [3] and 92.7 mg/kg in the series “Catalepsy assay in mice”. Besides, the “improvement of MK-801 induced high activity (in words)” value in series [2] is listed as “significantly improve”. The “improvement of apomorphine induced clambering symptoms (in words)” value in [3] is given as “effectively improve”. For the same compound, the IC50 on 5HT2A receptor was 15.1 nM; on 5HT1A receptor, 19.9 nM. Moreover, the values for the inhibition at 10 µM on 5HT2C, at D2 receptor and on D3 receptor were 68.1%, 104% and 101%, respectively. Besides, in the series on KM mice (catalepsy), the “EPS at effective dosage (in words)” value is “did not cause EPS”. Besides, the catalepsy/MK-801 in the series on KM mice (catalepsy) was 28.02. In addition, the catalepsy/apomorphine with KM mice (catalepsy) amounted to 22.62.

For `Fc1ccc2c(C3CCN(CCCSc4nnc(-c5ccc(C(F)(F)F)cc5)o4)CC3)noc2c1` [Compound 8, 2-((3-(4-(3-(6-fluoro-benzisoxazole))-1-piperidyl)propylthio)-5-(4-trifluoromethyl)phenyl)-1,3,4-oxadiazole], the inhibition at 10 µM at 5HT2A receptor stood at 101%; at 5HT1A receptor, 20.8%; on D2 receptor, 105%.

Turning to `c1ccc2c(N3CCN(CCCSc4nnc(-c5ccncc5)o4)CC3)nsc2c1` [Compound 15], the inhibition at 10 µM on 5HT2A receptor came out at 95.1%; on 5HT1A receptor, 114%; at D2 receptor it was 88.1%.

As for `Fc1ccc(-c2nnc(SCCCN3CCC(c4noc5cc(F)ccc45)CC3)o2)cc1` [Compound 10, 2-((3-(4-(3-(6-fluoro-benzisoxazole))-1-piperidyl)propylthio)-5-(4-fluoro)phenyl)-1,3,4-oxadiazole], the inhibition at 10 µM on 5HT2A receptor was 117%; on 5HT1A receptor it was 56.4%; at D2 receptor, 88.6%.

Regarding `FC(F)(F)c1ccc(-c2nnc(SCCCN3CCN(c4nsc5ccccc45)CC3)o2)cc1` [Compound 7, 2-((3-(4-(3-benzisothiazole)-1-piperazinyl)propylthio)-5-(4-trifluoromethyl)phenyl)-1,3,4-oxadiazole], the inhibition at 10 µM was 98.8% at 5HT2A receptor, 113% on 5HT1A receptor and 80.6% at D2 receptor.

Regarding `O=C1Cc2cc(CCN3CCN(c4nsc5ccccc45)CC3)c(Cl)cc2N1` [ziprasidone], the LD50 in “in vivo” (setting [4]) is 2000 mg/kg.

As to `Fc1ccc(-c2nnc(SCCCN3CCN(c4nsc5ccccc45)CC3)o2)cc1` [Compound 9, 2-((3-(4-(3-benzisothiazole)-1-piperazinyl)propylthio)-5-(4-fluoro)phenyl)-1,3,4-oxadiazole], the inhibition at 10 µM at 5HT2A receptor stood at 103%; at 5HT1A receptor it was 107%; on D2 receptor it was 84.8%.

On to `COc1ccc(-c2nnc(SCCCN3CCC(c4noc5cc(F)ccc45)CC3)o2)cc1` [Compound 4], for which, in the series “in vivo” (setting [4]), the LD50 is greater than 2000 mg/kg. Besides, the Total moving distance in [2] (3 mg/kg intragastric) came out at 24988.83 ± 7617.21 cm; in [2] (5 mg/kg intragastric), 22872.82 ± 10538.51 cm; in series [2] (10 mg/kg intragastric), 13574.51 ± 5340.38 cm; in series [2] (30 mg/kg intragastric), 7773.56 ± 3681.67 cm; in series [2] (100 mg/kg intragastric), 6954.61 ± 4931.26 cm. In addition, the ED50 in [2] turned out to be 15.4 mg/kg; in series [3], 1.62 mg/kg; in the series “Catalepsy assay in mice”, 640 mg/kg. Moreover, the “improvement of MK-801 induced high activity (in words)” value in [2] is “significantly improve”. Further, the “improvement of apomorphine induced clambering symptoms (in words)” value in series [3] is on record as “effectively improve”. Besides, the IC50 was found to be 0.51 nM at 5HT2A receptor and 12.7 nM at 5HT1A receptor. Also, the results for the inhibition at 10 µM at 5HT2C, on D2 receptor and at D3 receptor were 82.1%, 113% and 101%, respectively. In addition, in the series with KM mice (catalepsy), the “EPS at effective dosage (in words)” value is “did not cause EPS”. In addition, the catalepsy/MK-801 in the series on KM mice (catalepsy) was found to be 41.56. Also, the catalepsy/apomorphine in the series with KM mice (catalepsy) is 395.30.

Consider `c1ccc(-c2nnc(SCCCN3CCN(c4nsc5ccccc45)CC3)o2)cc1` [Compound 1], for which the inhibition at 10 µM at 5HT2A receptor amounted to 87.1%; on 5HT1A receptor it was 17.9%; at D2 receptor, 62.4%.

Turning to `O=C1CCc2ccc(OCCCCN3CCN(c4cccc(Cl)c4Cl)CC3)cc2N1` [aripiprazole], the LD50 in “in vivo” (KM) was 1400 mg/kg.
